Reference: paper PMC7914897, “Cytotoxic Potential of a-Azepano- and 3-Amino-3,4-SeCo-Triterpenoids” (International Journal of Molecular Sciences, 2021)
Where two headings read alike, the source gives them in different places.

What was measured:
UO-31 (Renal cancer) = experiment: NCI-60 screen (SRB, 48 h); settings: Homo sapiens
UACC-257 (Melanoma) = experiment: NCI-60 screen (SRB, 48 h); settings: Homo sapiens
OVCAR-3 (Ovarian cancer) = experiment: cells; settings: Homo sapiens
K-562 (Leukemia) = experiment: NCI-60 screen (SRB, 48 h); settings: Homo sapiens
SK-MEL-2 (Melanoma) = experiment: NCI-60 screen (SRB, 48 h); settings: Homo sapiens
LOX IMVI (Melanoma) = experiment: NCI-60 screen (SRB, 48 h); type: cell-based; settings: Homo sapiens
[1] = system: NCI-H322M (NSC lung cancer); experiment: NCI-60 screen (SRB, 48 h); settings: Homo sapiens
Breast cancer subpanel = experiment: NCI-60 screen, subpanel; settings: Homo sapiens
RPMI-8226 (Leukemia) = experiment: NCI-60 screen (SRB, 48 h); settings: Homo sapiens
DU-145 (Prostate cancer) = experiment: NCI-60 screen (SRB, 48 h); settings: Homo sapiens
Melanoma subpanel = experiment: NCI-60 screen, subpanel; settings: Homo sapiens
[2] = system: panel of approximately 60 cancer cell lines; experiment: NCI-60 screen (SRB, 48 h), full panel
[3] = system: NCI/ADR-RES (Ovarian cancer); experiment: NCI-60 screen (SRB, 48 h); settings: Homo sapiens
HS 578T (Breast cancer) = experiment: NCI-60 screen (SRB, 48 h); settings: Homo sapiens
[4] = system: NCI-H23 (NSC lung cancer); experiment: NCI-60 screen (SRB, 48 h); settings: Homo sapiens
Leukemia subpanel = experiment: cells; settings: Homo sapiens
Prostate cancer subpanel = experiment: NCI-60 screen, subpanel; settings: Homo sapiens
SK-MEL-28 (Melanoma) = experiment: NCI-60 screen (SRB, 48 h); settings: Homo sapiens
HT29 (Colon cancer) = experiment: NCI-60 screen (SRB, 48 h); settings: Homo sapiens
CCRF-CEM (Leukemia) = experiment: NCI-60 screen (SRB, 48 h); settings: Homo sapiens
[5] = system: MDA-MB-31/ATCC (Breast cancer); experiment: NCI-60 screen (SRB, 48 h); settings: Homo sapiens
HCT-15 (Colon cancer) = experiment: NCI-60 screen (SRB, 48 h); settings: Homo sapiens
SN12C (Renal cancer) = experiment: NCI-60 screen (SRB, 48 h); settings: Homo sapiens
IGROV1 (Ovarian cancer) = experiment: NCI-60 screen (SRB, 48 h); settings: Homo sapiens
U251 (CNS cancer) = experiment: NCI-60 screen (SRB, 48 h); settings: Homo sapiens
BT-549 (Breast cancer) = experiment: NCI-60 screen (SRB, 48 h); type: cell-based; settings: Homo sapiens
Colon Cancer subpanel = experiment: NCI-60 screen, subpanel; settings: Homo sapiens
[6] = system: A549/ATCC (NSC lung cancer); experiment: NCI-60 screen (SRB, 48 h); settings: Homo sapiens

In the case of `Cc1ccc(S(=O)(=O)OC[C@]23CCC(C)(C)C[C@H]2C2=CC[C@@H]4[C@@]5(C)CCCNC(C)(C)[C@@H]5CC[C@@]4(C)[C@]2(C)CC3)cc1` [Compound 15], the GI50 (UO-31 (Renal cancer); UO-31) was 1.29 µM, the IC (TGI) (UO-31 (Renal cancer); UO-31, 48 h, read-out: TGI) was 2.68 µM and the CC50 (UO-31 (Renal cancer); UO-31, read-out: LC50) was 5.58 µM. It also gave a GI50 (UACC-257 (Melanoma); UACC-257) of 1.85 µM, an IC (TGI) (UACC-257 (Melanoma); UACC-257, 48 h, read-out: TGI) of 3.54 µM and a GI50 (OVCAR-3 (Ovarian cancer); OVCAR-3) of 1.84 µM. For the same molecule, the IC (TGI) (OVCAR-3 (Ovarian cancer); OVCAR-3, 48 h, read-out: TGI) was 3.51 µM, the GI50 (K-562 (Leukemia); K562) was 1.75 µM and the CC50 (K-562 (Leukemia); K562, read-out: LC50) was > 100 µM. It also gave a GI50 (SK-MEL-2 (Melanoma); SK-MEL-2) of 2.19 µM, an IC (TGI) (SK-MEL-2 (Melanoma); SK-MEL-2, 48 h, read-out: TGI) of 4.83 µM and a CC50 (SK-MEL-2 (Melanoma); SK-MEL-2, read-out: LC50) of 16.4 µM. It also gave an IC (TGI) (LOX IMVI (Melanoma); 48 h) of 3 µM, an activity at 10 µM (LOX IMVI (Melanoma); 48 h, 1 dose 10 µM, read-out: Growth % of the Most Sensitive Cell Lines) of -87.7% and a GI50 (LOX IMVI (Melanoma); read-out: GI50) of 1.6 µM. For the same molecule, the GI50 [1] was 14.9 µM, the IC (TGI) ([1]; 48 h, read-out: TGI) was 4.05 µM and the CC50 ([1]; read-out: LC50) was > 100 µM. It also gave an IC (TGI) (Breast cancer subpanel; 48 h, read-out: TGI MG_MID) of 3.63 µM, a GI50 (Breast cancer subpanel; read-out: GI50 MG_MID) of 1.75 µM and a CC50 (Breast cancer subpanel; read-out: LC50 MG_MID) of 9.14 µM. For the same molecule, the GI50 (RPMI-8226 (Leukemia); RPMI-8226) was 2.03 µM, the IC (TGI) (RPMI-8226 (Leukemia); RPMI-8226, 48 h, read-out: TGI) was 4.42 µM and the GI50 (DU-145 (Prostate cancer); DU-145) was 1.79 µM. For the same molecule, the IC (TGI) (DU-145 (Prostate cancer); DU-145, 48 h, read-out: TGI) was 3.37 µM, the CC50 (DU-145 (Prostate cancer); DU-145, read-out: LC50) was 6.35 µM and the IC (TGI) (Melanoma subpanel; 48 h, read-out: TGI MG_MID) was 3.53 µM. The GI50 (Melanoma subpanel; read-out: GI50 MG_MID) was 1.81 µM, the CC50 (Melanoma subpanel; read-out: LC50 MG_MID) was 16.4 µM and the “Positive Cytostatic Effect (cell lines with percent growth 0 to 50 / total)” value ([2]; 1 dose 10 µM) was 17/60. The “Positive Cytotoxic Effect (cell lines with percent growth < 0 / total)” value ([2]; 1 dose 10 µM) was 14/60, the “number of cancer cell lines the compound was active against” value ([2]; 1 dose 10 µM) was 22 cell lines and the activity at 10 µM ([2]; Homo sapiens, 48 h, read-out: Mean Growth, %) was 37.2%. It also gave an activity at 10 µM ([2]; Homo sapiens, 48 h, read-out: Range of Growth, %) of -87.7 to 104%, an IC (TGI) ([2]; Homo sapiens, 48 h, read-out: TGI MG_MID60, average over all cell lines) of 3.8 µM and a GI50 ([2]; Homo sapiens, read-out: GI50 MG_MID60) of 1.99 µM. For the same molecule, the GI50 ([2]; Homo sapiens, read-out: GI50 against all human tumor cell lines) was < 15 µM, the GI50 ([2]; Homo sapiens, read-out: GI50 against the most sensitive cell lines) was 0.2 to 0.94 µM and the CC50 ([2]; Homo sapiens, read-out: LC50 MG_MID60, average over all cell lines) was 18.9 µM. It also gave a GI50 [3] of 1.89 µM, an IC (TGI) ([3]; 48 h, read-out: TGI) of 3.93 µM and a GI50 (HS 578T (Breast cancer)) of 1.82 µM. It also gave an IC (TGI) (HS 578T (Breast cancer); 48 h, read-out: TGI) of 4.08 µM, a CC50 (HS 578T (Breast cancer); read-out: LC50) of 9.14 µM and a GI50 ([4]; NCI-H23) of 1.7 µM. For the same molecule, the IC (TGI) ([4]; NCI-H23, 48 h, read-out: TGI) was 3.27 µM, the IC (TGI) (Leukemia subpanel; 48 h, read-out: TGI MG_MID) was 4.24 µM and the GI50 (Leukemia subpanel; read-out: GI50 MG_MID) was 1.57 µM. The CC50 (Leukemia subpanel; read-out: LC50 MG_MID) was > 100 µM, the IC (TGI) (Prostate cancer subpanel; 48 h, read-out: TGI MG_MID) was 3.27 µM and the GI50 (Prostate cancer subpanel; read-out: GI50 MG_MID) was 1.72 µM. The CC50 (Prostate cancer subpanel; read-out: LC50 MG_MID) was 6.35 µM, the GI50 (SK-MEL-28 (Melanoma); SK-MEL-28) was 1.84 µM and the IC (TGI) (SK-MEL-28 (Melanoma); SK-MEL-28, 48 h, read-out: TGI) was 3.38 µM. The GI50 (HT29 (Colon cancer); HT-29) was 1.64 µM, the IC (TGI) (HT29 (Colon cancer); HT-29, 48 h, read-out: TGI) was 3.23 µM and the GI50 (CCRF-CEM (Leukemia)) was 1.93 µM. The CC50 (CCRF-CEM (Leukemia); read-out: LC50) was > 100 µM, the GI50 [5] was 1.91 µM and the IC (TGI) ([5]; 48 h, read-out: TGI) was 4.12 µM. It also gave a GI50 (HCT-15 (Colon cancer); HCT-15) of 1.65 µM, an IC (TGI) (HCT-15 (Colon cancer); HCT-15, 48 h, read-out: TGI) of 3.2 µM and a GI50 (SN12C (Renal cancer)) of 1.67 µM. For the same molecule, the IC (TGI) (SN12C (Renal cancer); 48 h, read-out: TGI) was 3.3 µM, the GI50 (IGROV1 (Ovarian cancer); IGROV-1) was 1.41 µM and the IC (TGI) (IGROV1 (Ovarian cancer); IGROV-1, 48 h, read-out: TGI) was 3.08 µM. For the same molecule, the GI50 (U251 (CNS cancer); U-251) was 1.74 µM, the IC (TGI) (U251 (CNS cancer); U-251, 48 h, read-out: TGI) was 3.29 µM and the GI50 (BT-549 (Breast cancer); BT-549) was 1.9 µM. It also gave an IC (TGI) (BT-549 (Breast cancer); BT-549, 48 h) of 3.78 µM, an IC (TGI) (Colon Cancer subpanel; 48 h, read-out: TGI MG_MID) of 3.25 µM and a GI50 (Colon Cancer subpanel; read-out: GI50 MG_MID) of 1.7 µM. The GI50 ([6]; A549) was 1.83 µM and the IC (TGI) ([6]; A549, 48 h, read-out: TGI) was 3.66 µM.
